From US20250296971A1, “GASTRIC INHIBITORY PEPTIDE RECEPTOR LIGANDS” (priority 2021, published 2025) come the findings set out here.

The target in this experiment is T1, GIPR (CHO-K1-hGIPR cells) (Homo sapiens, UniProt P48546).
T1 construct: host or cells: CHO-K1
T1 sequence (P48546 22-466): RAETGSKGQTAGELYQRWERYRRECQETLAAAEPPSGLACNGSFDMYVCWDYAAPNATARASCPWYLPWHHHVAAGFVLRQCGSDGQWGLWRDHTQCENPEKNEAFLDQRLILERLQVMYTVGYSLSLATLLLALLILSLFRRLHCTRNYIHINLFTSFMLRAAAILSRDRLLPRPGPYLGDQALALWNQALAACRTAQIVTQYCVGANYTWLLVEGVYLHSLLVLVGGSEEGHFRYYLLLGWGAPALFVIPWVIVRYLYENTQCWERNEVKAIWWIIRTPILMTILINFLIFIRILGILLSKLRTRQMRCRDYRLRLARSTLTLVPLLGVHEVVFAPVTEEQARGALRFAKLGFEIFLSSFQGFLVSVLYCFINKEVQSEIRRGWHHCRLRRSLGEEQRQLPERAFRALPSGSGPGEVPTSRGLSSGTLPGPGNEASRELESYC
Put plainly: FACS binding assay. To be noted: competition with 20 nM GIP-057, 4° C. for 1 hour, read-out: pIC50 Category (converted). In a few lines:
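Steps: detach CHO-K1-hGIPR cells (Accutase); wash in PBS/1% FCS; adjust to 500.000 cells per mL; wash ice-cold; incubate APC-streptavidin 1 μg/mL, 30 min on ice; wash twice; acquire on flow cytometer; fit MFI-concentration data with a four-parameter logistic model.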
(Flow cytometry measures light scatter and fluorescence of single cells or particles in a stream.)

*1 amine or outer side, *2 acyl side, *3 side chain or, on linkers, in order; H or OH if unused. Where a SMILES comes first, the peptide text is derived from it. Bridges are numbered along the chain shown (N, C = ends). [ ]: non-standard residue; d: D form. Trp(5-Cl) = N[C@@H](Cc1c[nH]c2ccc(Cl)cc12)C(=O)O; Phe(3,4-Cl2) = N[C@@H](Cc1ccc(Cl)c(Cl)c1)C(=O)O; Pyridine(2,6-diCH2) = c1cc(C[*:1])nc(C[*:2])c1; Phe(3-Cl) = N[C@@H](Cc1cccc(Cl)c1)C(=O)O; 1Nal = N[C@@H](Cc1cccc2ccccc12)C(=O)O; mXylylene = c1cc(C[*:1])cc(C[*:2])c1; oXylylene = c1ccc(C[*:2])c(C[*:1])c1; X6 = c1cc(CSCCN[*:2])nc(C[*:1])c1; Cya = N[C@@H](CS(=O)(=O)O)C(=O)O; Hyp = O=C(O)[C@@H]1C[C@@H](O)CN1; Suc = O=C(CCC(=O)[*:2])[*:1]; hLeu = CC(C)CC[C@H](N)C(=O)O; Thp = NC1(C(=O)O)CCOCC1; Aib = CC(C)(N)C(=O)O

On to `CC[C@H](C)[C@@H]1NC(=O)[C@H](C)NC(=O)[C@H](C)NC(=O)[C@@H](NC(=O)[C@H](CC(C)C)NC(=O)[C@H](CCC(=O)O)NC(=O)[C@@H]2CCCN2C(=O)[C@H](Cc2c[nH]c3ccccc23)NC(=O)[C@H](Cc2c[nH]c3ccccc23)NC(=O)[C@H](CC(=O)O)NC(=O)[C@H](Cc2ccc(O)cc2)NC(=O)[C@@H](N)CCSC)CSCc2cccc(c2)CSC[C@@H](C(N)=O)NC1=O` [GIP-312] (H-MYDWWPELCAAIC-NH2; linker 9-13 via mXylylene), for which the IC50 is 100 to 794 nM.

As for `CC[C@H](C)[C@@H]1NC(=O)[C@@H](CC(C)C)NC(=O)[C@H](C)NC(=O)[C@@H](NC(=O)[C@H](CC(C)C)NC(=O)[C@H](CCC(=O)O)NC(=O)[C@@H]2CCCN2C(=O)[C@H](Cc2c[nH]c3ccccc23)NC(=O)[C@H](Cc2c[nH]c3ccccc23)NC(=O)[C@H](CC(=O)O)NC(=O)[C@H](Cc2ccc(O)cc2)NC(=O)[C@@H](N)CCSC)CSCc2ccccc2CSC[C@@H](C(N)=O)NC1=O` [GIP-313] (H-MYDWWPELCA[dL]IC-NH2; linker 9-13 via oXylylene), the IC50 is 100 to 794 nM.

Regarding `CC[C@H](C)[C@@H]1NC(=O)[C@H](CC(C)C)NC(=O)[C@@H](C)NC(=O)[C@@H](NC(=O)[C@H](CC(C)C)NC(=O)[C@H](CCC(=O)O)NC(=O)[C@@H]2CCCN2C(=O)[C@H](Cc2c[nH]c3ccccc23)NC(=O)[C@H](Cc2c[nH]c3ccccc23)NC(=O)CCC(=O)O)CSCc2cccc(c2)CSC[C@@H](C(N)=O)NC1=O` [GIP-314, HO-Succinyl-Trp-Trp-Pro-Glu-Leu-[Cys(3MeBn)-ala-Leu-Ile-Cys]-NH2] (Suc-WWPELC[dA]LIC-NH2; linker 6-10 via mXylylene), the IC50 is 100 to 794 nM.

Consider `CC[C@H](C)[C@@H]1NC(=O)[C@H](CC(C)C)NC(=O)C(C)(C)NC(=O)[C@@H](NC(=O)[C@H](CCC(C)C)NC(=O)[C@H](CCC(=O)O)NC(=O)[C@@H]2CCCN2C(=O)[C@H](Cc2cccc3ccccc23)NC(=O)[C@H](Cc2c[nH]c3ccccc23)NC(=O)[C@H](CC(=O)O)NC(C)=O)CSCc2cccc(c2)CSC[C@@H](C(N)=O)NC1=O` [GIP-315, Ac-Asp-Trp-1Ni-Pro-Glu-Hle-[Cys(3MeBn)-Aib-Leu-Ile-Cys]-NH2] (Ac-DW[1Nal]PE[hLeu]C[Aib]LIC-NH2; linker 7-11 via mXylylene), for which the IC50 is 100 to 794 nM.

Take `CC[C@H](C)[C@@H]1NC(=O)[C@H](CC(C)C)NC(=O)C(C)(C)NC(=O)[C@@H](NC(=O)[C@@H](CC(C)C)NC(=O)[C@H](CCC(=O)O)NC(=O)[C@@H]2C[C@@H](O)CN2C(=O)[C@H](Cc2c[nH]c3ccc(Cl)cc23)NC(=O)CNC(=O)[C@H](CS(=O)(=O)O)NC(C)=O)CSCc2cccc(n2)CSCCNC1=O` [GIP-316, Ac-Cya-Gly-5Clw-Hyp-Glu-leu-[Cys(2Lut)-Aib-Leu-Ile-AET]] (Ac-[Cya]G[Trp(5-Cl)][Hyp]E[dL]C[Aib]LI; linker 7-C via X6): the IC50 was 100 to 794 nM.

As to `CC[C@H](C)[C@@H]1NC(=O)[C@H](CC(C)C)NC(=O)[C@H](C)NC(=O)[C@@H](NC(=O)[C@H](CC(C)C)NC(=O)[C@H](CCC(=O)O)NC(=O)[C@@H]2CCCN2C(=O)[C@H](Cc2c[nH]c3ccccc23)NC(=O)[C@H](Cc2c[nH]c3ccccc23)NC(=O)[C@H](CS(=O)(=O)O)NC(C)=O)CSCc2cccc(c2)CSC[C@@H](C(N)=O)NC1=O` [GIP-317, Ac-Cya-Trp-Trp-Pro-Glu-Leu-[Cys(3MeBn)-Ala-Leu-Ile-Cys]-NH2] (Ac-[Cya]WWPELCALIC-NH2; linker 7-11 via mXylylene), the IC50 is 100 to 794 nM.

Take `CC[C@H](C)[C@@H]1NC(=O)[C@H](CC(C)C)NC(=O)[C@@H](C)NC(=O)[C@@H](NC(=O)[C@@H](CC(C)C)NC(=O)[C@H](CCC(=O)O)NC(=O)[C@@H]2CCCN2C(=O)[C@H](Cc2c[nH]c3ccccc23)NC(=O)[C@H](Cc2c[nH]c3ccccc23)NC(=O)CCC(=O)O)CSCc2cccc(c2)CSC[C@@H](C(N)=O)NC1=O` [GIP-318, HO-Succinyl-Trp-Trp-Pro-Glu-leu-[Cys(3MeBn)-ala-Leu-Ile-Cys]-NH2] (Suc-WWPE[dL]C[dA]LIC-NH2; linker 6-10 via mXylylene): the IC50 was 100 to 794 nM.

Take `CC[C@H](C)[C@@H]1NC(=O)[C@H](CC(C)C)NC(=O)C(C)(C)NC(=O)[C@@H](NC(=O)[C@H](CC(C)C)NC(=O)[C@H](CCC(=O)O)NC(=O)[C@@H]2C[C@@H](O)CN2C(=O)[C@H](Cc2c[nH]c3ccccc23)NC(=O)[C@H](Cc2c[nH]c3ccccc23)NC(=O)CCC(=O)O)CSCc2cccc(c2)CSC[C@@H](C(N)=O)NC1=O` [GIP-319, HO-Succinyl-Trp-Trp-Hyp-Glu-Leu-[Cys(3MeBn)-Aib-Leu-Ile-Cys]-NH2] (Suc-WW[Hyp]ELC[Aib]LIC-NH2; linker 6-10 via mXylylene): the IC50 is 100 to 794 nM.

As for `CC[C@H](C)[C@@H]1NC(=O)[C@H](CC(C)C)NC(=O)C2(CCOCC2)NC(=O)[C@@H](NC(=O)[C@@H](CC(C)C)NC(=O)[C@H](CCC(=O)O)NC(=O)[C@@H]2C[C@@H](O)CN2C(=O)[C@H](Cc2cccc(Cl)c2)NC(=O)[C@H](Cc2c[nH]c3ccccc23)NC(=O)[C@H](CC(=O)O)NC(C)=O)CSCc2cccc(n2)CSC[C@@H](C(N)=O)NC1=O` [GIP-320, Ac-Asp-Trp-Mcf-Hyp-Glu-leu-[Cys(2Lut)-Thp-Leu-Ile-Cys]-NH2] (Ac-DW[Phe(3-Cl)][Hyp]E[dL]C[Thp]LIC-NH2; linker 7-11 via Pyridine(2,6-diCH2)), the IC50 was 100 to 794 nM.

In the case of `CC(=O)N[C@@H](CC(=O)O)C(=O)N[C@@H](Cc1c[nH]c2ccccc12)C(=O)N[C@@H](Cc1c[nH]c2ccc(Cl)cc12)C(=O)N1C[C@H](O)C[C@H]1C(=O)N[C@@H](CCC(=O)O)C(=O)N[C@H](CC(C)C)C(=O)N[C@H]1CSCc2cccc(n2)CSC[C@@H](C(N)=O)NC(=O)[C@H](CO)NC(=O)[C@H](CC(C)C)NC(=O)C2(CCOCC2)NC1=O` [GIP-322, Ac-Asp-Trp-5Clw-Hyp-Glu-leu-[Cys(2Lut)-Thp-Leu-Ser-Cys]-NH2] (Ac-DW[Trp(5-Cl)][Hyp]E[dL]C[Thp]LSC-NH2; linker 7-11 via Pyridine(2,6-diCH2)), the IC50 is 100 to 794 nM.

Regarding `CC[C@H](C)[C@@H]1NC(=O)[C@H](CC(C)C)NC(=O)C2(CCOCC2)NC(=O)[C@@H](NC(=O)[C@@H](CC(C)C)NC(=O)[C@H](CCC(=O)O)NC(=O)[C@@H]2C[C@@H](O)CN2C(=O)[C@H](Cc2ccc(Cl)c(Cl)c2)NC(=O)[C@H](Cc2ccc(Cl)c(Cl)c2)NC(=O)[C@H](CC(=O)O)NC(C)=O)CSCc2cccc(n2)CSC[C@@H](C(N)=O)NC1=O` [GIP-323, Ac-Asp-Eaa-Eaa-Hyp-Glu-leu-[Cys(2Lut)-Thp-Leu-Ile-Cys]-NH2] (Ac-D[Phe(3,4-Cl2)][Phe(3,4-Cl2)][Hyp]E[dL]C[Thp]LIC-NH2; linker 7-11 via Pyridine(2,6-diCH2)), the IC50 was 100 to 794 nM.

For the molecule `CC[C@H](C)[C@@H]1NC(=O)[C@H](CC(C)C)NC(=O)[C@H](C)NC(=O)[C@@H](NC(=O)[C@H](CC(C)C)NC(=O)[C@H](CCC(=O)O)NC(=O)[C@@H]2CCCN2C(=O)[C@H](Cc2c[nH]c3ccccc23)NC(=O)[C@H](Cc2c[nH]c3ccccc23)NC(C)=O)CSCc2cccc(c2)CSC[C@@H](C(N)=O)NC1=O` [GIP-324, Ac-Trp-Trp-Pro-Glu-Leu-[Cys(3MeBn)-Ala-Leu-Ile-Cys]-NH2] (Ac-WWPELCALIC-NH2; linker 6-10 via mXylylene), the IC50 was above 1000 nM.

Take `CC[C@H](C)[C@@H]1NC(=O)[C@H](CC(C)C)NC(=O)[C@H](C)NC(=O)[C@@H](NC(=O)[C@H](CC(C)C)NC(=O)[C@H](CCC(=O)O)NC(=O)[C@@H]2CCCN2C(=O)[C@H](Cc2c[nH]c3ccccc23)NC(C)=O)CSCc2cccc(c2)CSC[C@@H](C(N)=O)NC1=O` [GIP-325, Ac-Trp-Pro-Glu-Leu-[Cys(3MeBn)-Ala-Leu-Ile-Cys]-NH2] (Ac-WPELCALIC-NH2; linker 5-9 via mXylylene): the IC50 was above 1000 nM.

Turning to `CC[C@H](C)[C@@H]1NC(=O)[C@H](CC(C)C)NC(=O)[C@H](C)NC(=O)[C@@H](NC(=O)[C@H](CC(C)C)NC(=O)[C@H](CCC(=O)O)NC(=O)[C@@H]2CCCN2C(C)=O)CSCc2cccc(c2)CSC[C@@H](C(N)=O)NC1=O` [GIP-326, Ac-Pro-Glu-Leu-[Cys(3MeBn)-Ala-Leu-Ile-Cys]-NH2] (Ac-PELCALIC-NH2; linker 4-8 via mXylylene), the IC50 is above 1000 nM.

Take `CC[C@H](C)[C@@H]1NC(=O)[C@H](CC(C)C)NC(=O)[C@H](C)NC(=O)[C@@H](NC(=O)[C@H](CC(C)C)NC(=O)[C@H](CCC(=O)O)NC(C)=O)CSCc2cccc(c2)CSC[C@@H](C(N)=O)NC1=O` [GIP-327, Ac-Glu-Leu-[Cys(3MeBn)-Ala-Leu-Ile-Cys]-NH2] (Ac-ELCALIC-NH2; linker 3-7 via mXylylene): the IC50 was above 1000 nM.

Consider `CC[C@H](C)[C@@H]1NC(=O)[C@H](CC(C)C)NC(=O)[C@H](C)NC(=O)[C@@H](NC(=O)[C@H](CC(C)C)NC(=O)[C@H](CCC(=O)O)NC(=O)[C@H]2CCCN2C(=O)[C@H](Cc2c[nH]c3ccccc23)NC(=O)[C@H](Cc2c[nH]c3ccccc23)NC(=O)[C@H](CC(=O)O)NC(=O)[C@H](Cc2ccc(O)cc2)NC(=O)[C@@H](N)CCSC)CSCc2cccc(c2)CSC[C@@H](C(N)=O)NC1=O` [GIP-328, H-Met-Tyr-Asp-Trp-Trp-pro-Glu-Leu-[Cys(3MeBn)-Ala-Leu-Ile-Cys]-NH2] (H-MYDWW[dP]ELCALIC-NH2; linker 9-13 via mXylylene), for which the IC50 was above 1000 nM.
